This is an account of results in patent EP4806899A1, “FUSED RING DERIVATIVE, PREPARATION METHOD THEREFOR AND USE THEREOF IN MEDICINE” (Shanghai Qilu Pharmaceutical Research and Development …, priority 2023, dated 2025).

Data set [1] has as its target T1, human CYP11B2 enzyme (Homo sapiens, UniProt P19099).
T1 construct: the ORF of human CYP11B1 or CYP11B2 were transfected into G402 cells; expressed in transfected cells
T1 sequence (P19099 25-503): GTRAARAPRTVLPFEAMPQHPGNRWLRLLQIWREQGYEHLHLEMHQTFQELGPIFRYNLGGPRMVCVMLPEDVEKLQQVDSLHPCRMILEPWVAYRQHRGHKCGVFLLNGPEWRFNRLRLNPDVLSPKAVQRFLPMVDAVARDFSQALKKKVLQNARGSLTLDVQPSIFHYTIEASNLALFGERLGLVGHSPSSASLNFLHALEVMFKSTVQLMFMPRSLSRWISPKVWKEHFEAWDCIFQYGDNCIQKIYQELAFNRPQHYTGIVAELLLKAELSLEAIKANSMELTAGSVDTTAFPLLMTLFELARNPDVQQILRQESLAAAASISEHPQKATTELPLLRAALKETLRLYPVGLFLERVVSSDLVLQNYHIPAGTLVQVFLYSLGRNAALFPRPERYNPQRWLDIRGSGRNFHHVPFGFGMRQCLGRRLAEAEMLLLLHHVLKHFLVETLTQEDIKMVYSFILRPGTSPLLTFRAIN
Nature of the data set: Enzyme inhibition activity assay in G402 cells stably expressing human CYP11B2 (aldosterone production from 11-DOC, LC/MS). In kind it is cell-based. The conditions noted are these: 1 µM 11-DOC, 16 hours, aldosterone detected. The procedure, abridged:
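G402 cells stably expressing human CYP11B2 or CYP11B1, preincubated 1 h with inhibitor in DMEM/F12 plus 2.5% charcoal-stripped FCS, then 16 h with 1 µM 11-DOC or 1 µM 11-DC. Aldosterone or cortisol quantified by LC/MS; IC50 from four-parameter logistic fit versus uninhibited control.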

Data set [2] in a line: Pharmacokinetic determination in monkeys after gavage administration (P.O.). In kind it is in vivo, Cynomolgus monkeys (Macaca fascicularis). The conditions noted are these: cynomolgus monkey, po, 1 mg/kg, plasma. As to the method: Cynomolgus monkeys (Macaca fascicularis) were used as test animals to study the pharmacokinetic behavior of the compounds of the present disclosure in plasma following gavage administration (P.O.). Plasma samples were collected at specific time points, compound concentrations in plasma were detected by LC-MS/MS, and pharmacokinetic parameters were calculated to reflect the pharmacokinetics in cynomolgus monkeys.
Cynomolgus monkeys, male, Ankaiyibo (Zhanjiang) Biotechnology Co., Ltd.
After administration to cynomolgus monkeys, venous blood samples of 0.3 mL were collected at 0.25, 0.5, 1, 2, 4, 8, and 24 hours and placed in EDTA-K2 test tubes. Plasma was separated by centrifugation at 4 °C, 4000 g for 5 minutes and stored at -80 °C.
• 1) 50 µL of plasma sample was precipitated by adding 200 µL of acetonitrile, vortex mixed, and centrifuged for 15 minutes. • 2) The processed supernatant was diluted with water and analyzed by LC/MS/MS to determine the concentration of the test compound.
Pharmacokinetic parameters were calculated using WinNonlin 8.3. Cmax represents the maximum plasma concentration, T1/2 represents the terminal elimination half-life, MRTInf represents the mean residence time, and AUC represents the area under the plasma concentration-time curve. Table 6 Pharmacokinetic Parameters of the Compounds of the Present Disclosure in Monkeys

Data set [3] is described as follows: Pharmacokinetic determination in mice after gavage administration (P.O.). The class given is in vivo. The settings on record: male, CD-1, mouse, po, 10 mg/kg, plasma.

Regarding `CCC(=O)N[C@@H]1CCOc2c(-c3ccc4c(c3)CCC(=O)N4C)cncc21` [Compound A02-P2], in data set [1], the IC50 (commonly the midpoint of a concentration-inhibition curve) worked out at 12.3 nM. In addition, in data set [2] (in vivo), the concentration peaked (Cmax) at 1600 nM; the MRT inf (usually a mean duration of stay, worked out from the concentration-time curve) turned out to be 8.77 h; the half-life (commonly the time needed for the level to fall by half in the phase considered) is 7.44 h. In addition, the AUC(0-t) at 24 h in data set [2] (in vivo, read-out: AUC0-24) was 12.8 µM·h.
As for `[2H]C([2H])([2H])OC(=O)N[C@@H]1CCOc2c(-c3cc(F)c4c(ccc(=O)n4C)c3)cncc21` [Compound A50], half-maximal inhibition in data set [1] (IC50) was put at 11.1 nM. The Cmax (in general, the highest concentration seen after dosing) is 9070 nM in data set [3] and 1140 nM in data set [2] (male). In addition, the AUC(0-t) came to 136 µM·h in data set [3] (read-out: AUC0-24) and 13.5 µM·h in data set [2] (male, read-out: AUC0-24). The compound further had a mean residence time (MRT inf) in data set [2] (male) of 13 h. In addition, in data set [2] (male), the half-life was 10.5 h.
